In the NIST ThermoML archive (doi:10.1021/je400274f):
“And” between values parts separate entries of the source, which are not always exact repeats. Equal entries are not always repeated. ± gives the expanded uncertainty stated by the source.

Conditions: 323.15 K; 101.33 kPa; Liquid; Concentric cylinders viscometry

**Q.** Which viscosity does the source give for `CCC(C)CC(C)CC` (stereo unspecified) [3,5-dimethylheptane] here?
**A.** 0.477 ± 0.012 mPa·s

**Q.** For `CCC(C)CCC(C)CC` (stereo unspecified) [3,6-dimethyloctane], which viscosity is on record?
**A.** 0.568 ± 0.014 mPa·s

**Q.** With `CCCCCCCCC(C)CC` (stereo unspecified) [3-methylundecane] as the molecule, how does the viscosity read?
**A.** 0.883 ± 0.021 mPa·s

**Q.** Which viscosity does the source give for `CCCCC(C)CCC` (stereo unspecified) [4-methyloctane] here?
**A.** 0.441 ± 0.021 mPa·s

**Q.** Which viscosity does the source give for `CCCCCCCCCC(C)CCCCCC` (stereo unspecified) [7-methylhexadecane] here?
**A.** 2 ± 0.18 mPa·s

Same assay, conditions: 323.15 K; 101.33 kPa; Liquid; Pulse-echo method

**Q.** For `CCCCCCCCC(C)C` [2-methyldecane], which speed of sound is on record?
**A.** 1141 ± 1.3 m/s

**Q.** With `CCCCCCCC(C)C` [2-methylnonane] as the molecule, how does the speed of sound read?
**A.** 1113.4 ± 1.5 m/s

**Q.** Which speed of sound does the source give for `CCCCCCC(C)C` [2-methyloctane] here?
**A.** 1081.2 ± 1.5 m/s

**Q.** With `CCCCCCCCCCCCCC(C)C` [2-methylpentadecane] as the molecule, how does the speed of sound read?
**A.** 1231.6 ± 6.1 m/s

**Q.** Which speed of sound does the source give for `CCC(C)CC(C)CC` (stereo unspecified) [3,5-dimethylheptane] here?
**A.** 1081.4 ± 1.9 m/s

**Q.** Which speed of sound does the source give for `CCC(C)CCC(C)CC` (stereo unspecified) [3,6-dimethyloctane] here?
**A.** 1117.2 ± 1.7 m/s

**Q.** Which speed of sound does the source give for `CCCCCCCCC(C)CC` (stereo unspecified) [3-methylundecane] here?
**A.** 1176.6 ± 2.3 m/s

**Q.** With `CCCCC(C)CCC` (stereo unspecified) [4-methyloctane] as the molecule, how does the speed of sound read?
**A.** 1090.7 ± 1.5 m/s

**Q.** With `CCCCCCCCCC(C)CCCCCC` (stereo unspecified) [7-methylhexadecane] as the molecule, how does the speed of sound read?
**A.** 1245.5 ± 2.3 m/s

Same assay, conditions: 323.15 K; 101.33 kPa; Liquid; Vibrating tube method

**Q.** For `CCCCCCCCC(C)C` [2-methyldecane], which mass density is on record?
**A.** 715.9 ± 0.3 kg/m3 and 715.7 ± 0.3 kg/m3

**Q.** With `CCCCCCCC(C)C` [2-methylnonane] as the molecule, how does the mass density read?
**A.** 703.9 ± 0.3 kg/m3 and 703.9 ± 0.4 kg/m3

**Q.** For `CCCCCCC(C)C` [2-methyloctane], which mass density is on record?
**A.** 691.6 ± 0.4 kg/m3 and 691.4 ± 0.4 kg/m3

**Q.** For `CCCCCCCCCCCCCC(C)C` [2-methylpentadecane], which mass density is on record?
**A.** 754.1 ± 4.6 kg/m3 and 754 ± 4.6 kg/m3

**Q.** Which mass density does the source give for `CCC(C)CC(C)CC` (stereo unspecified) [3,5-dimethylheptane] here?
**A.** 702.5 ± 0.4 kg/m3 and 702.5 ± 0.5 kg/m3

**Q.** For `CCC(C)CCC(C)CC` (stereo unspecified) [3,6-dimethyloctane], which mass density is on record?
**A.** 715.7 ± 0.6 kg/m3 and 715.5 ± 0.4 kg/m3

**Q.** Which mass density does the source give for `CCCCCCCCC(C)CC` (stereo unspecified) [3-methylundecane] here?
**A.** 729.3 ± 0.6 kg/m3

**Q.** Which mass density does the source give for `CCCCC(C)CCC` (stereo unspecified) [4-methyloctane] here?
**A.** 695.9 ± 0.3 kg/m3 and 695.7 ± 0.4 kg/m3

**Q.** With `CCCCCCCCCC(C)CCCCCC` (stereo unspecified) [7-methylhexadecane] as the molecule, how does the mass density read?
**A.** 760.2 ± 0.6 kg/m3 and 760 ± 0.6 kg/m3

Same assay, conditions: 333.15 K; 101.33 kPa; Liquid; Concentric cylinders viscometry

**Q.** Which viscosity does the source give for `CCCCCCCCC(C)C` [2-methyldecane] here?
**A.** 0.647 ± 0.017 mPa·s

**Q.** For `CCCCCCCC(C)C` [2-methylnonane], which viscosity is on record?
**A.** 0.529 ± 0.012 mPa·s

**Q.** Which viscosity does the source give for `CCCCCCC(C)C` [2-methyloctane] here?
**A.** 0.422 ± 0.01 mPa·s

**Q.** With `CCCCCCCCCCCCCC(C)C` [2-methylpentadecane] as the molecule, how does the viscosity read?
**A.** 1.55 ± 0.08 mPa·s

**Q.** Which viscosity does the source give for `CCC(C)CC(C)CC` (stereo unspecified) [3,5-dimethylheptane] here?
**A.** 0.428 ± 0.01 mPa·s

**Q.** For `CCC(C)CCC(C)CC` (stereo unspecified) [3,6-dimethyloctane], which viscosity is on record?
**A.** 0.506 ± 0.012 mPa·s

**Q.** Which viscosity does the source give for `CCCCCCCCC(C)CC` (stereo unspecified) [3-methylundecane] here?
**A.** 0.771 ± 0.019 mPa·s

**Q.** With `CCCCC(C)CCC` (stereo unspecified) [4-methyloctane] as the molecule, how does the viscosity read?
**A.** 0.397 ± 0.021 mPa·s

**Q.** Which viscosity does the source give for `CCCCCCCCCC(C)CCCCCC` (stereo unspecified) [7-methylhexadecane] here?
**A.** 1.66 ± 0.16 mPa·s

Same assay, conditions: 333.15 K; 101.33 kPa; Liquid; Vibrating tube method

**Q.** For `CCCCCCCCC(C)C` [2-methyldecane], which mass density is on record?
**A.** 708.1 ± 0.3 kg/m3

**Q.** Which mass density does the source give for `CCCCCCCC(C)C` [2-methylnonane] here?
**A.** 696 ± 0.4 kg/m3

**Q.** With `CCCCCCC(C)C` [2-methyloctane] as the molecule, how does the mass density read?
**A.** 683.3 ± 0.4 kg/m3

**Q.** Which mass density does the source give for `CCCCCCCCCCCCCC(C)C` [2-methylpentadecane] here?
**A.** 747 ± 4.5 kg/m3

**Q.** For `CCC(C)CC(C)CC` (stereo unspecified) [3,5-dimethylheptane], which mass density is on record?
**A.** 694.5 ± 0.5 kg/m3

**Q.** For `CCC(C)CCC(C)CC` (stereo unspecified) [3,6-dimethyloctane], which mass density is on record?
**A.** 707.6 ± 0.4 kg/m3

**Q.** With `CCCCCCCCC(C)CC` (stereo unspecified) [3-methylundecane] as the molecule, how does the mass density read?
**A.** 721.9 ± 0.6 kg/m3

**Q.** Which mass density does the source give for `CCCCC(C)CCC` (stereo unspecified) [4-methyloctane] here?
**A.** 687.5 ± 0.4 kg/m3

**Q.** With `CCCCCCCCCC(C)CCCCCC` (stereo unspecified) [7-methylhexadecane] as the molecule, how does the mass density read?
**A.** 753.1 ± 0.6 kg/m3

Same assay, conditions: 343.15 K; 101.33 kPa; Liquid; Concentric cylinders viscometry

**Q.** Which viscosity does the source give for `CCCCCCCCC(C)C` [2-methyldecane] here?
**A.** 0.575 ± 0.017 mPa·s

**Q.** Which viscosity does the source give for `CCCCCCCC(C)C` [2-methylnonane] here?
**A.** 0.475 ± 0.011 mPa·s

**Q.** Which viscosity does the source give for `CCCCCCC(C)C` [2-methyloctane] here?
**A.** 0.381 ± 0.009 mPa·s

**Q.** Which viscosity does the source give for `CCCCCCCCCCCCCC(C)C` [2-methylpentadecane] here?
**A.** 1.33 ± 0.06 mPa·s

**Q.** For `CCC(C)CC(C)CC` (stereo unspecified) [3,5-dimethylheptane], which viscosity is on record?
**A.** 0.386 ± 0.01 mPa·s

**Q.** With `CCC(C)CCC(C)CC` (stereo unspecified) [3,6-dimethyloctane] as the molecule, how does the viscosity read?
**A.** 0.453 ± 0.01 mPa·s

**Q.** For `CCCCCCCCC(C)CC` (stereo unspecified) [3-methylundecane], which viscosity is on record?
**A.** 0.68 ± 0.017 mPa·s

**Q.** Which viscosity does the source give for `CCCCC(C)CCC` (stereo unspecified) [4-methyloctane] here?
**A.** 0.368 ± 0.06 mPa·s

**Q.** Which viscosity does the source give for `CCCCCCCCCC(C)CCCCCC` (stereo unspecified) [7-methylhexadecane] here?
**A.** 1.41 ± 0.12 mPa·s

Same assay, conditions: 343.15 K; 101.33 kPa; Liquid; Vibrating tube method

**Q.** With `CCCCCCCCC(C)C` [2-methyldecane] as the molecule, how does the mass density read?
**A.** 700.5 ± 0.3 kg/m3

**Q.** With `CCCCCCCC(C)C` [2-methylnonane] as the molecule, how does the mass density read?
**A.** 688.1 ± 0.4 kg/m3

**Q.** With `CCCCCCC(C)C` [2-methyloctane] as the molecule, how does the mass density read?
**A.** 675.1 ± 0.4 kg/m3

**Q.** For `CCCCCCCCCCCCCC(C)C` [2-methylpentadecane], which mass density is on record?
**A.** 740 ± 4.5 kg/m3

**Q.** Which mass density does the source give for `CCC(C)CC(C)CC` (stereo unspecified) [3,5-dimethylheptane] here?
**A.** 686.3 ± 0.5 kg/m3

**Q.** Which mass density does the source give for `CCC(C)CCC(C)CC` (stereo unspecified) [3,6-dimethyloctane] here?
**A.** 699.6 ± 0.4 kg/m3
